The text below walks through data of patent US10123981B2, “Methods for treatment of pelvic pain and/or comorbid conditions” (priority 2012, dated 2018).

Structures are written as SMILES. Read-outs that look alike come from different tables or passages of the source.

The test system of data set [1] is IC. The settings on record: cited from earlier work.
Data set [2] is described as follows: In vitro release of lidocaine from silicone tube devices (diffusion through wall / apertures). The format is physicochemical. The settings on record: in vitro in water at about 37° C.; tubes with or without apertures. As for the experimental part: A study was performed to determine the feasibility of delivering drug through the wall of a drug reservoir via diffusion. […] Some of the devices included an aperture formed through the tube wall, the aperture having a diameter of 150 μm. […] The devices were tested in vitro in water at about 37° C. […] Another study was performed to investigate the feasibility of delivering drug from a device through both a wall of a drug reservoir and from an aperture in the wall of the drug reservoir. Devices were formed form silicone tubes having a length of about 3 cm. […] The devices were tested in vitro in water at about 37° C.

As to `CCN(CC)CC(=O)Nc1c(C)cccc1C` [lidocaine], the mean pain score is listed as 1.2 in data set [1] (after second instillation), 1.8 in data set [1] (immediately following treatment (prior to treatment 6.0)) and 3.7 in data set [1] (the next day). In data set [1] (single instillation), the duration of effect result is on record as “approximately 24 hours”.
With `CCN(CC)CC(=O)Nc1c(C)cccc1C` [lidocaine base], the “release of drug from silicone tube” value in data set [2] is given as “can be released from a silicone tube without any apertures”.
